Our source for the TGI values is PubChem BioAssay (NCI).

Each structure is given as a SMILES string.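 Step 1: Grow cells in 96-well plates. Step 2: Expose to compound for 48 hours at 5 concentrations. Step 3: Interpolate endpoints linearly; if unreached, use highest concentration. TGI is the concentration that stops growth completely.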

Test systems include 786-0 renal; ACHN renal; CAKI-1 renal; DU-145 prostate; HCT-116 colon; K-562 leukemia; LOX IMVI melanoma; NCI-H226 lung; NCI-H23 lung; PC-3 prostate; SF-268 CNS; SK-MEL-2 melanoma; SW-620 colon; T-47D breast; TK-10 renal; UACC-257 melanoma; BT-549 breast.
Test in all cases: DTP human tumour cell line panel, 48 h

In the case of `O=C1C(=Nc2ccccc2)Oc2cc(O)ccc21`, the total growth inhibition concentration (TGI) with 786-0 renal, with ACHN renal, in the assay with CAKI-1 renal, in the assay on DU-145 prostate, in the assay on HCT-116 colon and in the assay with K-562 leukemia was more than 100 µM throughout. Also, the TGI in the assay on LOX IMVI melanoma, in the assay on NCI-H226 lung, in the assay with NCI-H23 lung, with PC-3 prostate, with SF-268 CNS and with SK-MEL-2 melanoma was more than 100 µM each time. Moreover, the total growth inhibition concentration (TGI) with SW-620 colon, in the assay on T-47D breast, in the assay with TK-10 renal and with UACC-257 melanoma was more than 100 µM each time.

With `C[n+]1cccc2ccc(OC(=O)c3ccccc3)cc21`, the TGI with 786-0 renal, with ACHN renal, in the assay on CAKI-1 renal, in the assay with DU-145 prostate, in the assay with HCT-116 colon and in the assay on K-562 leukemia was more than 100 µM each time. In addition, the TGI with LOX IMVI melanoma, in the assay on NCI-H226 lung, with NCI-H23 lung, in the assay on SF-268 CNS, with SK-MEL-2 melanoma and in the assay with SW-620 colon was more than 100 µM each time. For the same compound, the TGI in the assay with T-47D breast, in the assay with TK-10 renal and in the assay with UACC-257 melanoma was more than 100 µM throughout.

`O=C1CC(C(=O)N2CCCCC2)n2c(=O)n(-c3ccccc3)c(=O)n2C1` (stereo not drawn): the TGI in the assay on 786-0 renal, with ACHN renal, in the assay with BT-549 breast, in the assay on CAKI-1 renal, in the assay on DU-145 prostate and with HCT-116 colon was more than 100 µM each time. Further, the TGI in the assay with LOX IMVI melanoma, in the assay with NCI-H226 lung, with NCI-H23 lung, in the assay with PC-3 prostate, in the assay with SF-268 CNS and with TK-10 renal was more than 100 µM each time. The compound also came in with a TGI with UACC-257 melanoma of more than 100 µM.

Consider `CC(C)CCc1n[nH]c(=O)n1/N=C\c1ccccc1`, for which the TGI in the assay on 786-0 renal, with ACHN renal, in the assay on DU-145 prostate, in the assay with HCT-116 colon, in the assay on K-562 leukemia and in the assay with LOX IMVI melanoma was more than 100 µM throughout. Moreover, the TGI with NCI-H226 lung, with NCI-H23 lung, in the assay with SF-268 CNS, in the assay with SK-MEL-2 melanoma, in the assay with SW-620 colon and with T-47D breast was more than 100 µM throughout. In addition, the TGI in the assay on TK-10 renal and in the assay with UACC-257 melanoma was more than 100 µM throughout.

`O=c1c2cn[nH]c2nc2scc(-c3ccc(Cl)cc3)n12`: the concentration for total growth inhibition (TGI) in the assay with 786-0 renal, in the assay on ACHN renal, in the assay with CAKI-1 renal, in the assay with HCT-116 colon, with K-562 leukemia and with LOX IMVI melanoma was more than 100 µM in each case. Further, the total growth inhibition concentration (TGI) in the assay with NCI-H226 lung, in the assay with NCI-H23 lung, in the assay with PC-3 prostate, with SF-268 CNS, with SK-MEL-2 melanoma and with SW-620 colon was more than 100 µM throughout. Besides, the concentration for total growth inhibition (TGI) with T-47D breast, in the assay with TK-10 renal and in the assay on UACC-257 melanoma was more than 100 µM each time.

Consider `CCN(CC)C(=S)N=Nc1c(O)[nH]c2ccccc12`, for which the TGI in the assay with 786-0 renal is 11.4 µM; in the assay on ACHN renal, 10.1 µM; in the assay with CAKI-1 renal, 5.98 µM; with DU-145 prostate it was more than 100 µM; in the assay with HCT-116 colon, 2.84 µM; with K-562 leukemia, 5.31 µM. The concentration for total growth inhibition (TGI) is 13.4 µM in the assay on LOX IMVI melanoma; 8.2 µM in the assay on NCI-H226 lung; 14.6 µM in the assay with NCI-H23 lung; 13.9 µM in the assay on PC-3 prostate; more than 100 µM with SF-268 CNS; 23.8 µM in the assay on SK-MEL-2 melanoma. Moreover, the figures for the TGI in the assay with SW-620 colon, in the assay with TK-10 renal and in the assay on UACC-257 melanoma were 19.7 µM, 5.07 µM and 12.3 µM, respectively.

Regarding `O=C(/C=C/c1ccc(Cl)cc1)c1cccs1`, the total growth inhibition concentration (TGI) in the assay with 786-0 renal was 30 µM; with ACHN renal, 37.5 µM; in the assay on CAKI-1 renal it was 45.2 µM; in the assay with DU-145 prostate, more than 100 µM; in the assay with HCT-116 colon, 33.8 µM; in the assay with K-562 leukemia, more than 100 µM. For the same compound, the TGI in the assay with LOX IMVI melanoma is 24.3 µM; in the assay on NCI-H226 lung, 44.5 µM; in the assay with PC-3 prostate, 32.8 µM; with SF-268 CNS it was 75.9 µM; with SK-MEL-2 melanoma it was more than 100 µM; in the assay on SW-620 colon, 30.4 µM. The TGI was 45.1 µM in the assay on T-47D breast, 47 µM with TK-10 renal and 37.4 µM in the assay with UACC-257 melanoma.

As to `Cc1ccc(S(=O)(=O)n2c3c(c4ccccc42)CCN2CCC(Br)C[C@@H]32)cc1` (stereo partly drawn), the concentration for total growth inhibition (TGI) in the assay with 786-0 renal is 30.2 µM; with ACHN renal, 34.8 µM; with CAKI-1 renal, 28.6 µM; in the assay with DU-145 prostate, 29.1 µM; in the assay with K-562 leukemia, 18.6 µM; in the assay on LOX IMVI melanoma it was 27.6 µM. Also, the concentration for total growth inhibition (TGI) in the assay on NCI-H226 lung turned out to be 27.9 µM; in the assay on NCI-H23 lung, 26.6 µM; in the assay with PC-3 prostate, 26.3 µM; in the assay on SF-268 CNS it was 30.8 µM; in the assay on SK-MEL-2 melanoma, 31.7 µM; with SW-620 colon, 26.1 µM. Also, the concentration for total growth inhibition (TGI) in the assay on T-47D breast is 21.8 µM; in the assay on TK-10 renal, 29.4 µM; with UACC-257 melanoma, 21.1 µM.

`CC(C)C1COC(c2cccc(C3=N[C@@H](C(C)C)CO3)n2)=N1` (stereo partly drawn): the total growth inhibition concentration (TGI) with 786-0 renal, with ACHN renal, with CAKI-1 renal, in the assay on HCT-116 colon, in the assay on K-562 leukemia and in the assay with LOX IMVI melanoma was more than 100 µM throughout. Moreover, the TGI with NCI-H226 lung, with NCI-H23 lung, with SF-268 CNS, in the assay on SK-MEL-2 melanoma, in the assay with SW-620 colon and in the assay on TK-10 renal was more than 100 µM each time.

On to `O=C1[C@@H]2C[C@@H](O)CN2C(=O)c2ccccc2N1CCCO`, for which the TGI with 786-0 renal, in the assay on ACHN renal, in the assay on DU-145 prostate, in the assay with HCT-116 colon, with K-562 leukemia and in the assay on LOX IMVI melanoma was more than 100 µM throughout. The TGI in the assay on NCI-H226 lung, with PC-3 prostate, with SF-268 CNS, with SK-MEL-2 melanoma, in the assay on SW-620 colon and in the assay with T-47D breast was more than 100 µM throughout. The total growth inhibition concentration (TGI) in the assay on TK-10 renal and in the assay on UACC-257 melanoma was more than 100 µM in each case.

Turning to `C=C=C(Sc1ccccc1)C(C)(C)OC(C)=O`, the total growth inhibition concentration (TGI) was found to be 30.1 µM with 786-0 renal; 90.2 µM in the assay on CAKI-1 renal; 90.2 µM with DU-145 prostate; 27.7 µM in the assay with HCT-116 colon; 52 µM with K-562 leukemia; 30.9 µM in the assay with LOX IMVI melanoma. Moreover, the TGI was 45.4 µM in the assay on NCI-H226 lung; 32.9 µM with NCI-H23 lung; 27.7 µM with SF-268 CNS; 35 µM with SK-MEL-2 melanoma; 33.7 µM with SW-620 colon; more than 100 µM with TK-10 renal. In the assay on UACC-257 melanoma, this compound returned a TGI of 32.4 µM.

With `Cc1ccc2c(C)c3ccc4ccccc4c3c[n+]2c1`, the TGI is 80.3 µM with 786-0 renal; more than 100 µM in the assay on ACHN renal; more than 100 µM in the assay with CAKI-1 renal; more than 89.7 µM in the assay with HCT-116 colon; more than 100 µM in the assay on K-562 leukemia; 99.8 µM in the assay with LOX IMVI melanoma. The TGI is 25.4 µM in the assay with NCI-H226 lung; 38.6 µM with NCI-H23 lung; 14.8 µM in the assay with SF-268 CNS; 29.5 µM with SK-MEL-2 melanoma; more than 82.1 µM in the assay with SW-620 colon; more than 100 µM with TK-10 renal. For the same compound, the TGI in the assay with UACC-257 melanoma stood at 33.7 µM.

With `COc1ccc(-c2cc(=O)c3cc4c(cc3[nH]2)OCO4)cc1`, the concentration for total growth inhibition (TGI) in the assay with 786-0 renal, with ACHN renal, in the assay with HCT-116 colon, in the assay on K-562 leukemia, in the assay with LOX IMVI melanoma and in the assay with NCI-H226 lung was more than 100 µM throughout. Besides, the total growth inhibition concentration (TGI) in the assay with NCI-H23 lung, in the assay on SF-268 CNS, in the assay on SK-MEL-2 melanoma, in the assay with SW-620 colon, in the assay on TK-10 renal and with UACC-257 melanoma was more than 100 µM in each case.

Take `C/C(CC1SCCCS1)=C(/C)CC1SCCCS1`: the TGI with 786-0 renal, in the assay with ACHN renal, in the assay on CAKI-1 renal, with DU-145 prostate, in the assay with HCT-116 colon and with K-562 leukemia was more than 100 µM in each case. For the same compound, the TGI in the assay with LOX IMVI melanoma, in the assay with NCI-H226 lung, with NCI-H23 lung, with PC-3 prostate, in the assay on SF-268 CNS and in the assay on SK-MEL-2 melanoma was more than 100 µM throughout. For the same compound, the concentration for total growth inhibition (TGI) in the assay on SW-620 colon, in the assay on T-47D breast and with TK-10 renal was more than 100 µM in each case.

In the case of `CC(=O)N(CN1C(=O)CCC1C(=O)O)c1cccc(O)c1` (stereo not drawn), the TGI in the assay with 786-0 renal, in the assay with ACHN renal, with CAKI-1 renal, in the assay with DU-145 prostate, in the assay with HCT-116 colon and in the assay on K-562 leukemia was more than 100 µM throughout. The TGI in the assay with LOX IMVI melanoma, in the assay on NCI-H226 lung, with NCI-H23 lung, with PC-3 prostate, in the assay on SF-268 CNS and in the assay on SK-MEL-2 melanoma was more than 100 µM in each case. In addition, the TGI in the assay on SW-620 colon, in the assay with T-47D breast, in the assay on TK-10 renal and in the assay on UACC-257 melanoma was more than 100 µM each time.
